Three molecules from article PMC10053710, “Influence of Lipidation Pattern of the KR12 Fragment of Peptide LL-37 on Its Antibacterial and Hemolytic Activities” (International Journal of Molecular Sciences, 2023) can be followed below.

Data set [1] concerns Enterococcus faecium ATCC 700221. It is filed as cell-based. The conditions noted are these: ATCC 700221, 18 h. A digest of the protocol:
(§1)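 Read-out is visible growth inhibition: the MIC is the lowest peptide concentration preventing it after 18 h at 37 °C. Peptides spanned 1–512 µg/mL against 0.5 × 10^5 CFU/mL in Mueller–Hinton broth, following CLSI microdilution.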

The subject of data set [2] is Pseudomonas aeruginosa ATCC 9027. It is filed as cell-based. The note with it: ATCC 9027, 18 h. A digest of the protocol: as §1
Data set [3] deals with Klebsiella aerogenes ATCC 13048. The format is cell-based. The note with it: ATCC 13048, 18 h. The method in brief: as §1
Data set [4] deals with Klebsiella pneumoniae ATCC 700603. The format is cell-based. The note with it: ATCC 700603, 18 h. The method in brief: as §1
Data set [5] has as its system reference strains of Staphylococcus aureus. As to the kind of experiment: MIC over the five reference strains of S. aureus (geometric mean, range, selectivity). The format is cell-based. The note with it: MIC values of Table 3. The procedure: Selectivity indexes were calculated based on the MHC5 and geometric mean (GM) of MIC values against S. aureus strains.
Tests of the antibacterial activity were carried out as we just described. Briefly, for assays, the following strains of ESKAPE bacteria were chosen: Acinetobacter baumannii ATCC BAA-1605, Enterococcus faecium ATCC 700221, Klebsiella aerogenes ATCC 13048 (formerly Enterobacter aerogenes), Klebsiella pneumoniae ATCC 700603, and Pseudomonas aeruginosa ATCC 9027. Moreover, the reference strains of Staphylococcus aureus were used: S. aureus ATCC 25923, S. aureus ATCC 6538, S. aureus ATCC 33591 (MRSA), S. aureus ATCC 9144, and S. aureus ATCC 12598. Before experiments, all the strains were stored at −80 °C in Roti®-Store cryo vials (Carl Roth GmbH, Karlsruhe, Germany). To evaluate the activity of the compounds, bacteria were transferred into fresh Mueller–Hinton medium (Becton Dickinson, Warszawa, Poland) and incubated for 24 h at 37 °C. In the next step, bacterial inoculums were seeded on Mueller–Hinton agar plates (BioMaxima SA, Lublin, Poland) and incubated again for 24 h. The MIC values were determined using the broth microdilution method according to the Clinical and Laboratory Standards Institute Protocol. […] The results were read after incubation for 18 h at 37 °C. […]

The subject of data set [6] is S. aureus ATCC 9144. The format is cell-based, Staphylococcus aureus. The note with it: ATCC 9144, 18 h. The method in brief:
as §1

In data set [7] the test system is S. aureus ATCC 6538. The format is cell-based, Staphylococcus aureus. The conditions noted are these: ATCC 6538, 18 h. The method in brief:
as §1

The test system of data set [8] is S. aureus ATCC 25923. The format is cell-based, Staphylococcus aureus. The conditions noted are these: ATCC 25923, 18 h. A digest of the protocol: as §1
For data set [9], the system named is S. aureus ATCC 33591 (MRSA). The format is cell-based, Staphylococcus aureus. The note with it: ATCC 33591, 18 h. The method in brief:
as §1

In data set [10] the test system is S. aureus ATCC 12598. The format is cell-based, Staphylococcus aureus. The conditions noted are these: ATCC 12598, 18 h. A digest of the protocol: as §1
Data set [11] in a line: RP-HPLC adjusted retention time as measure of hydrophobicity. It is filed as physicochemical. The note with it: chromatographic, Phenomenex Gemini-NX C18 4.6 × 150 mm, linear gradient 10–100% B (0.1% TFA in ACN) in A (0.1% aqueous TFA) over 10 min, 25 °C, 0.5 mL/min, UV 214 nm; used as hydrophobicity measure. An excerpt:
The identity of the purified peptides was confirmed using electrospray ionization mass spectrometry (ESI-MS) in positive ion mode and the results are shown in Table S1 (Supplementary Materials).
The conjugation of KR12-NH2 with aliphatic and aromatic acids affords more hydrophobic compounds than the parent molecule, but it depends on the modified amino group involved. The conjugation of C8 to N^α amino group of the N-terminal amino acid gives a more distinct increase in hydrophobicity than that of C8 in the sidechain of lysine residues (i.e., II vs. III; IV vs. V). […] Moreover, in the acidic conditions of the mobile phase (0.1% TFA; pH 2,) both amino groups are protonated. Hypothetically, the acylation of the N^α-amino group disrupts the helix macrodipole and eliminates excessive positive charge. The dipole moment and positive charge can obviously contribute to peptide hydrophilicity. This phenomenon applies exclusively to the N^α-amino group, but not so much to N^ε. […]
Finally, the peptides were purified with solid-phase extraction (SPE) on Isolute ^TM SPE columns (flash, C18, 25 mL). The eluates were fractionated, and the purity of the peptides was determined on a Varian ProStar HPLC system controlled by a Galaxie Chromatography Data System with a Phenomenex Gemini-NX C18 column (4.6 × 150 mm, 110 Å pore size, 5 µm particle size). […]

Data set [12] deals with human red blood cells (hRBCs). Put plainly: Hemolysis assay. The note with it: 4% (v/v) erythrocytes in PBS, peptides 1–512 µg/mL, 1 h at 37 °C, hemoglobin at 540 nm.
Protocol: To facilitate a comparison of hemolytic activity between the analogs, MHC5 values were determined. MHC5 is the minimum hemolytic concentration of the compounds that caused the 5% hemolysis of hRBCs.
Briefly, the fresh hRBCs with EDTA as anticoagulant were rinsed three times with PBS through centrifugation at 800× g for 10 min and resuspended in PBS. The serial dilution of peptides (1–512 µg/mL) was prepared in PBS on 96-well plates. Then, the stock RBCs solution was added to the plates to reach a final volume of 100 µL with a 4% concentration of erythrocytes (v/v). The control wells for 0 (RBCs in PBS) and 100% (RBCs in 1% Triton-X 100) hemolysis were also prepared. Then, the plates were incubated for 1 h at 37 °C and centrifuged at 800× g for 10 min at 4 °C (Sorvall ST 16R Centrifuge, Thermo Scientific, Waltham, MA, USA). After centrifugation, the supernatant was carefully transferred to new microtiter plates and the release of hemoglobin was measured at 540 nm (Multiskan™ GO Microplate Spectrophotometer, Thermo Scientific, Waltham, MA, USA). The percentage of hemolysis was calculated based on wells with 100% hemolysis.

Values after ≈ are worked out from the molar mass of the structure shown. Like-named read-outs stand apart in the source and are kept apart here. Where a SMILES comes first, the peptide text is derived from it. Where no end group is shown, it is not given here. The star is where a group is joined. Deoxycholoyl = C[C@H](CCC(=O)*)[C@H]1CC[C@H]2[C@@H]3CC[C@@H]4C[C@H](O)CC[C@]4(C)[C@H]3C[C@H](O)[C@]12C; Octanoyl = CCCCCCCC(=O)*

On to `CCCCCCCC(=O)NCCCC[C@H](NC(=O)[C@H](CCCNC(=N)N)NC(=O)[C@@H](NC(=O)[C@@H](NC(=O)[C@H](CCC(N)=O)NC(=O)[C@H](CCCNC(=N)N)NC(=O)[C@@H](NC(=O)[C@H](CCCCN)NC(=O)[C@H](CC(=O)O)NC(=O)[C@H](Cc1ccccc1)NC(=O)[C@H](CC(C)C)NC(=O)[C@@H](N)CCCNC(=N)N)[C@@H](C)CC)C(C)C)[C@@H](C)CC)C(N)=O` [XI, retro-KR12-C8^ε-NH2] (H-RLFDKIRQVIRK(Octanoyl)-NH2), for which the “MIC E. faecium” value in data set [1] came to 32 µg/mL (≈ 18.9 µM). Also, the “MIC P. aeruginosa” value in [2] was 128 µg/mL (≈ 75.4 µM). Also, the “MIC K. aerogenes” value in data set [3] stood at 512 µg/mL (≈ 302 µM). Moreover, the “MIC K. pneumoniae” value in data set [4] came out at 512 µg/mL (≈ 302 µM). Besides, the “MIC A. baumannii” value (18 h) came out at 64 µg/mL (≈ 37.7 µM). Moreover, in [5], the “GM (geometric mean of the MIC values against S. aureus)” value came out at 168.9. In addition, the “MIC S. aureus 9144” value in data set [6] worked out at 256 µg/mL (≈ 151 µM). In [7], the “MIC S. aureus 6538” value is reported as 16 µg/mL (≈ 9.43 µM). In addition, the “MIC S. aureus 25923” value in data set [8] amounted to 128 µg/mL (≈ 75.4 µM). In data set [9], the “MIC S. aureus 33591” value stood at 512 µg/mL (≈ 302 µM). Besides, the “MIC S. aureus 12598” value in data set [10] is reported as 512 µg/mL (≈ 302 µM). For the same molecule, the “HPLC tR (adjusted retention time, t'R)” value in data set [11] worked out at 5.05 min.
With `CC[C@H](C)[C@H](NC(=O)[C@H](CCCNC(=N)N)NC(=O)[C@H](CCC(N)=O)NC(=O)[C@@H](NC(=O)[C@@H](NC(=O)[C@H](CCCNC(=N)N)NC(=O)[C@H](CCCCN)NC(=O)CC[C@@H](C)[C@H]1CC[C@H]2[C@@H]3CC[C@@H]4C[C@H](O)CC[C@]4(C)[C@H]3C[C@H](O)[C@]12C)[C@@H](C)CC)C(C)C)C(=O)N[C@@H](CCCCN)C(=O)N[C@@H](CC(=O)O)C(=O)N[C@@H](Cc1ccccc1)C(=O)N[C@@H](CC(C)C)C(=O)N[C@@H](CCCNC(=N)N)C(N)=O` [XXII, Deoxycholic acid-KR12-NH2] (Deoxycholoyl-KRIVQRIKDFLR-NH2), the “MIC E. faecium” value in [1] is recorded as 2 µg/mL (≈ 1.03 µM). Moreover, the “MIC P. aeruginosa” value in [2] came out at 128 µg/mL (≈ 65.8 µM). Moreover, in data set [3], the “MIC K. aerogenes” value came to 128 µg/mL (≈ 65.8 µM). For the same molecule, the “MIC K. pneumoniae” value in data set [4] stood at 64 µg/mL (≈ 32.9 µM). Besides, the “MIC A. baumannii” value (Mueller–Hinton broth, 0.5 × 10^5 CFU/mL, peptides 1–512 µg/mL, 18 h at 37 °C, triplicate) stood at 8 µg/mL (≈ 4.11 µM). In data set [6], the “MIC S. aureus 9144” value is recorded as 8 µg/mL (≈ 4.11 µM). Further, the “MIC S. aureus 6538” value in data set [7] came out at 4 µg/mL (≈ 2.06 µM). Besides, the “MIC S. aureus 25923” value in data set [8] turned out to be 32 µg/mL (≈ 16.4 µM). Moreover, the “MIC S. aureus 33591” value in [9] is listed as 256 µg/mL (≈ 132 µM). Besides, the “MIC S. aureus 12598” value in [10] was determined as 8 µg/mL (≈ 4.11 µM). Also, the “MHC5 (minimum hemolytic concentration causing 5% hemolysis of hRBCs)” value in [12] (fresh batch of blood (footnote a)) was 8 µg/mL.
In the case of KRIVQRIKDFLR-NH2 [I, KR12-NH2], the “MIC E. faecium” value in data set [1] was 128 µg/mL. In addition, the “MIC P. aeruginosa” value in [2] came out at 128 µg/mL. Moreover, the “MIC K. aerogenes” value in data set [3] is above 512 µg/mL. For the same molecule, the “MIC K. pneumoniae” value in [4] is recorded as above 512 µg/mL. Besides, for the setting “18 h”, the “MIC A. baumannii” value is 256 µg/mL. Also, the “MIC S. aureus 9144” value in data set [6] was above 512 µg/mL. Further, in data set [7], the “MIC S. aureus 6538” value is 512 µg/mL. In [8], the “MIC S. aureus 25923” value is above 512 µg/mL. In addition, the “MIC S. aureus 33591” value in [9] is reported as above 512 µg/mL. In data set [10], the “MIC S. aureus 12598” value was above 512 µg/mL. Further, the “MHC5 (minimum hemolytic concentration causing 5% hemolysis of hRBCs)” value in data set [12] (100% = 1% Triton-X 100, ≥ means less than 5% hemolysis up to 512 µg/mL) was at least 512 µg/mL.
